Measurements from ChEMBL document CHEMBL1201862, “PubChem BioAssay data set” (2004).
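Results reflect a 48-hour exposure of cells in 96-well plates to compound at five concentrations. GI50 marks 50% less growth.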 Activity calls are given as the source filed them. No stated cut-off is given here; in the data, active = GI50 up to about 1.1 µM and inactive = higher.

Legend:
Experiment in all cases: inhibition of tumour cell growth, NCI panel, 48 h
SNB-75 = test system: SNB-75
K562 = test system: K562
A498 = test system: A498
PC-3 = test system: PC-3
HOP-92 = test system: HOP-92
SN12C = test system: SN12C
UO-31 = test system: UO-31
M14 = test system: M14
HOP-62 = test system: HOP-62
NCI-H522 = test system: NCI-H522
NCI/ADR-RES = test system: NCI/ADR-RES
OVCAR-8 = test system: OVCAR-8
NCI-H460 = test system: NCI-H460
SF-268 = test system: SF-268
LOX IMVI = test system: LOX IMVI
RPMI-8226 = test system: RPMI-8226
RXF 393 = test system: RXF 393
SR = test system: SR
HL-60 = test system: HL-60

Measured: GI50

COc1ccc2c3c1OC1C(=O)C=CC4(CC2)N(C)CCC314 (centres undefined)
inactive: SNB-75 28.1 µM | K562 12.2 µM | A498 13.9 µM | PC-3 21.7 µM | HOP-92 22.7 µM | SN12C 21.4 µM | UO-31 16.3 µM | M14 16.6 µM | HOP-62 29.6 µM | NCI-H522 11 µM | NCI/ADR-RES 22.9 µM | OVCAR-8 22.5 µM | NCI-H460 16.6 µM | SF-268 19.3 µM | LOX IMVI 11.4 µM | RPMI-8226 17 µM | RXF 393 25.9 µM | SR 7.21 µM

CC1(C)[N+]([O-])=[N+]([O-])C1(C)O (centres undefined)
inactive: SNB-75 > 100 µM | K562 > 100 µM | A498 > 100 µM | PC-3 > 100 µM | SN12C > 100 µM | UO-31 > 100 µM | M14 > 100 µM | NCI-H522 > 100 µM | NCI/ADR-RES > 100 µM | OVCAR-8 > 100 µM | NCI-H460 > 100 µM | HL-60 > 100 µM | SF-268 > 100 µM | LOX IMVI > 100 µM | RPMI-8226 > 100 µM | RXF 393 > 100 µM | SR > 100 µM

O=S(=O)(c1ccccc1)c1ccc(/N=N/O)nc1
inactive: SNB-75 62.2 µM | K562 > 100 µM | A498 > 100 µM | PC-3 > 100 µM | SN12C > 100 µM | UO-31 > 100 µM | M14 > 100 µM | HOP-62 > 100 µM | NCI-H522 > 100 µM | NCI/ADR-RES > 100 µM | OVCAR-8 > 100 µM | NCI-H460 > 100 µM | HL-60 > 10 µM | SF-268 > 100 µM | SR > 100 µM

C=C1CCCC(C)(C)[C@H]1C/C=C1\CCOC1=O
inactive: K562 11.9 µM | A498 17.2 µM | PC-3 16.9 µM | HOP-92 12.1 µM | SN12C 18.2 µM | UO-31 16.1 µM | M14 17.5 µM | HOP-62 17.6 µM | NCI-H522 18 µM | NCI/ADR-RES 10.5 µM | OVCAR-8 17.7 µM | NCI-H460 11.8 µM | HL-60 11.5 µM | SF-268 9.04 µM | LOX IMVI 11.5 µM | RPMI-8226 6.62 µM | SR 12.4 µM

CCOC(=O)/C=C(/C(=O)OCC)n1cnc2c(=O)[nH]c(NC(C)=O)nc21
inactive: SNB-75 > 100 µM | K562 > 100 µM | A498 > 100 µM | PC-3 > 100 µM | HOP-92 > 100 µM | SN12C > 100 µM | UO-31 > 100 µM | M14 > 100 µM | HOP-62 > 100 µM | NCI-H522 > 100 µM | NCI/ADR-RES > 100 µM | OVCAR-8 > 100 µM | NCI-H460 > 100 µM | HL-60 > 100 µM | SF-268 > 100 µM | LOX IMVI > 100 µM | RPMI-8226 > 100 µM | SR > 100 µM

CC1CCOc2ccc(cc2)/C=N\c2ccc(cc2)-c2ccc(cc2)/N=C\c2ccc(cc2)OCC1
inactive: K562 > 100 µM | PC-3 > 100 µM | HOP-92 > 100 µM | SN12C > 100 µM | UO-31 > 100 µM | M14 > 100 µM | NCI-H522 > 100 µM | NCI/ADR-RES > 100 µM | OVCAR-8 > 100 µM | NCI-H460 > 100 µM | HL-60 > 100 µM | SF-268 > 100 µM | LOX IMVI > 100 µM | RPMI-8226 > 100 µM | SR > 100 µM

NC(Cc1ccccc1)C(=O)OCN1C(=O)C2C3C=CC(C2C1=O)C1C(=O)N(COC(=O)C(N)Cc2ccccc2)C(=O)C31 (centres undefined)
inactive: K562 28.5 µM | PC-3 > 100 µM | SN12C > 100 µM | UO-31 > 100 µM | M14 92 µM | HOP-62 > 100 µM | NCI-H522 > 100 µM | NCI/ADR-RES > 100 µM | OVCAR-8 > 100 µM | NCI-H460 67.9 µM | HL-60 17.4 µM | SF-268 > 100 µM | LOX IMVI 22 µM | RPMI-8226 23.2 µM | RXF 393 > 100 µM | SR 24.4 µM

CC(=O)Oc1c2c(c3n(c1=O)CCCC3)C(=O)N(c1ccccc1)C2=O
inactive: SNB-75 87.5 µM | K562 > 100 µM | PC-3 46.5 µM | HOP-92 40.7 µM | SN12C 83.2 µM | UO-31 95.7 µM | M14 > 100 µM | HOP-62 > 100 µM | NCI-H522 61.5 µM | NCI/ADR-RES 65.3 µM | OVCAR-8 > 100 µM | NCI-H460 > 100 µM | HL-60 > 100 µM | SF-268 > 100 µM | LOX IMVI > 100 µM | RXF 393 > 100 µM | SR > 100 µM

CC(=O)O/N=C1\C=Cc2c(no[n+]2[O-])C1=O
inactive: SNB-75 19.8 µM | K562 35 µM | A498 16.4 µM | PC-3 17 µM | SN12C 18.5 µM | UO-31 15.1 µM | M14 18.6 µM | HOP-62 38.3 µM | NCI-H522 17 µM | NCI/ADR-RES 27.6 µM | OVCAR-8 12.3 µM | NCI-H460 34.7 µM | SF-268 20.8 µM | LOX IMVI 18 µM | RPMI-8226 30 µM | RXF 393 15.2 µM | SR 15.8 µM

COc1ccc(OC2OC(CO)C(O)C(O)C2O)cc1 (centres undefined)
inactive: SNB-75 > 100 µM | K562 > 100 µM | A498 > 100 µM | PC-3 > 100 µM | SN12C > 100 µM | UO-31 > 100 µM | M14 > 100 µM | HOP-62 > 100 µM | NCI-H522 > 100 µM | NCI/ADR-RES > 100 µM | OVCAR-8 > 100 µM | NCI-H460 > 100 µM | HL-60 > 100 µM | SF-268 > 100 µM | LOX IMVI > 100 µM | RPMI-8226 > 100 µM | SR > 100 µM

CCC(CCCN)Nc1cc(OC)cc2c(C)ccnc12 (centres undefined)
inactive: SNB-75 12.7 µM | K562 15 µM | A498 18.7 µM | PC-3 11.6 µM | HOP-92 14 µM | SN12C 21.2 µM | UO-31 12.9 µM | M14 15.2 µM | HOP-62 15.1 µM | NCI/ADR-RES 25.1 µM | OVCAR-8 21.1 µM | NCI-H460 17.7 µM | HL-60 12.4 µM | SF-268 15.3 µM | LOX IMVI 16.3 µM | RXF 393 13.8 µM | SR 15.3 µM

C=CCOC(=O)C1=C(C)N=C2N[C@H](CCCCCCCCC)C[C@@H]3CCC1N23 (some centres undefined)
inactive: SNB-75 30.5 µM | K562 30.3 µM | PC-3 21.6 µM | HOP-92 19.3 µM | SN12C 18.2 µM | UO-31 17.1 µM | M14 18.7 µM | HOP-62 30.5 µM | NCI-H522 16.7 µM | NCI/ADR-RES 22.8 µM | OVCAR-8 30.5 µM | NCI-H460 25.4 µM | HL-60 26.4 µM | SF-268 19.3 µM | LOX IMVI 21.6 µM | RPMI-8226 30.7 µM | RXF 393 19.5 µM | SR 28.4 µM

CN1C(=O)[C@@H]2N(CSC2(C)C)C1=S
inactive: SNB-75 > 100 µM | K562 69.7 µM | A498 > 100 µM | PC-3 > 100 µM | HOP-92 98.6 µM | SN12C > 100 µM | UO-31 > 100 µM | M14 > 100 µM | HOP-62 > 100 µM | NCI-H522 29.1 µM | NCI/ADR-RES > 100 µM | OVCAR-8 > 100 µM | NCI-H460 > 100 µM | SF-268 > 100 µM | RPMI-8226 > 100 µM | RXF 393 > 100 µM | SR > 100 µM

Cn1nnnc1SC(F)(F)c1nc2ccccc2o1
inactive: SNB-75 52.1 µM | K562 > 100 µM | A498 > 100 µM | PC-3 > 100 µM | HOP-92 > 100 µM | SN12C > 100 µM | UO-31 > 100 µM | M14 > 100 µM | HOP-62 > 100 µM | NCI-H522 > 100 µM | NCI/ADR-RES > 100 µM | OVCAR-8 > 100 µM | NCI-H460 > 100 µM | SF-268 > 100 µM | RPMI-8226 > 100 µM | RXF 393 > 100 µM | SR > 100 µM

Cc1c(C(=O)O)c2cc3ccccc3cc2c(=O)n1C
inactive: SNB-75 > 10 µM | PC-3 > 10 µM | HOP-92 > 10 µM | SN12C > 10 µM | UO-31 > 10 µM | M14 > 10 µM | NCI-H522 > 10 µM | NCI/ADR-RES > 10 µM | OVCAR-8 > 10 µM | NCI-H460 > 10 µM | HL-60 > 10 µM | SF-268 > 10 µM | LOX IMVI > 10 µM | RXF 393 > 10 µM | SR > 10 µM

O=[N+]([O-])c1ccc2c(c1)Cc1cc(/N=C/c3ccc4c(c3)OCO4)ccc1-2
inactive: SNB-75 89.7 µM | K562 > 100 µM | A498 > 100 µM | PC-3 > 100 µM | HOP-92 > 100 µM | SN12C > 100 µM | UO-31 > 100 µM | M14 > 100 µM | HOP-62 > 100 µM | NCI-H522 > 100 µM | NCI/ADR-RES > 100 µM | OVCAR-8 > 100 µM | NCI-H460 > 100 µM | HL-60 > 100 µM | SF-268 > 100 µM | LOX IMVI > 100 µM | RPMI-8226 > 100 µM | RXF 393 > 100 µM
